Read-outs that look alike come from different tables or passages of the source.
What was measured:
H1975 = assay: Non Small Cell Lung Cancer proliferation assay (Alamar Blue reduction), H1975; format: cell-based, human; details: for inhibition at 10 µM: NCI-H1975, primary screening, 10 μM compound in 1% DMSO (v/v), read-out: percentage inhibition H1975
Method in brief: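 Human NSCLC cells were seeded at 250 cells/well with compound at a final 1% DMSO and treated for 48 hours at 37° C. 1% DMSO served as the high control.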

H827 = assay: Non Small Cell Lung Cancer proliferation assay (Alamar Blue reduction), H827; format: cell-based
Method: […] are grown and maintained in Corning 175 cm2 flasks in RPMI 1640 media supplemented with 10% FBS, 1% antibiotic solution, 1% additional glutamine and pyruvate. These cells have a doubling time of 1-2 days. All cell types are adherent and grow in colonies. The cells should be kept at a density between 50,000 cells/mL -500,000 cells/mL to provide for optimum growth and adequate nutrition. The cell line should be maintained at 37° C. in a humidified atmosphere with 5% CO2 in a sterile cell culture incubator.
Non Small Cell Lung Cancer Proliferation Assay. To perform the assay, the Non Small Cell Lung Cancer lines are diluted in media and plated into 384 well microplates at a final density of 250 cells in […]. To ensure consistency and minimal pipetting error, the cells are plated using the Multidrop 384 with the following settings: Rocker Switch set at 384, Volume 45 and Column 24.
Low Controls for this assay are made by treating Non Small Cell Lung Cancer cells with 5 ul of staurosporine at 250 uM in 10% DMSO and 1% SDS. [Final concentration in this assay is 25 uM staurosporine in 1% DMSO and 0.1% SDS.]
(§1) High Controls for this assay are made by treating Non Small Cell Lung Cancer cells with 5 ul of 10% DMSO. [Final concentration in this assay is 1% DMSO].
The remaining wells of the 384 microplate may be treated with different compounds depending on the study. Important Note: All compounds for testing in this assay should be done at the final concentration of 1% DMSO.
(§2) After addition, the cells are placed in cell culture incubator at 37° C. for 48 hours for complete treatment.
After drug treatment, cytotoxicity is measured by Alamar Blue reduction. 5 μL of Alamar Blue is added to the 384 microplates using the Flexdrop.
(§3) The cells are incubated for 48 hours at 37° C. to complete the Alamar Blue reduction.
(§4) The final step in the assay is to measure the amount of Alamar Blue reduction. […] The Alamar Blue fluorescence is measured at an excitation of 530 nm and emission of 590 nm.
(§5) For the NSCLC project, the cell based assay was screened against a small molecule library of approximately 200,000 compounds. The compound library is stored in our automated robotic freezer (Biophile) at −20° C. in 100% DMSO. Compound freeze and thaw cycles are kept to a minimum. Compounds for use are diluted into the appropriate concentration and plated into 384 well microplates using our custom built low volume 384-well head tool (TPS 384, Apricot Designs Inc., CA, USA). This assay was performed on a fully automated linear track robotic platform (CRS F3 Robot System, Thermo Electron Corp., Ontario, Canada) utilizing several integrated peripherals for plate handling, liquid dispensing, and readout detection. First, non-small cell lung cancer cell lines are dispensed into 384 well microplates (Corning #3712 Tissue Culture Treated Plate, Corning, N.Y., USA) with 5 μL of test compounds at 100 uM in 10% DMSO for screening studies or 1 mM in 10% DMSO to 50 nM in 10% DMSO for dose response studies. The microplates are then placed at 37° C. for 48 hours to complete treatment of cells with compounds. Next, 5 ul of alamar blue was added using a liquid dispenser (Flexprop Precision Dispenser, Perkin Elmer, Mass., USA) and incubated for 48 hours at 37° C. The alamar blue prompt fluorescence was measured on Victor V (Victor^3 V, Perkin Elmer, Mass., USA) and output data files were loaded into ORIS (Oncology Research Informatics System, MSKCC, NY, USA), a screening data acquisition and analysis platform.

H358 = assay: Non Small Cell Lung Cancer proliferation assay (Alamar Blue reduction), H358; format: cell-based; details: Homo sapiens
Method: These cells have a doubling time of 1-2 days. All cell types are adherent and grow in colonies. The cells should be kept at a density between 50,000 cells/mL -500,000 cells/mL to provide for optimum growth and adequate nutrition. The cell line should be maintained at 37° C. in a humidified atmosphere with 5% CO2 in a sterile cell culture incubator.
Non Small Cell Lung Cancer Proliferation Assay.
as §1
Important Note: All compounds for testing in this assay should be done at the final concentration of 1% DMSO.
as §2
After drug treatment, cytotoxicity is measured by Alamar Blue reduction.
as §3, §4
as §5, with “Compounds for use are diluted into the appropriate concentration and plated into 384 well microplates using our custom built low volume 384-well head tool (TPS 384, Apricot Designs Inc., CA, USA).” left out, “First, non-small cell lung cancer cell lines are dispensed into 384 well microplates (Corning #3712 Tissue Culture Treated Plate, Corning, N.Y., USA) with 5 μL of test compounds at 100 uM in 10% DMSO for screening studies or 1 mM in 10% DMSO to 50 nM in 10% DMSO for dose response studies.” left out
(§6) The dose response studies were done with the following standard procedure. First, the cells were counted and dispensed at 250 cells/well into 384-well microplates with compound. The cells were incubated for 48 hours at 37 C to complete treatment, and then alamar blue was added for an additional 48 hours. Finally, alamar blue reduction was measured and the data was loaded into ORIS, our data screening acquisition platform.

PC9 = assay: Dose response study (Alamar Blue), PC9; format: cell-based; details: Homo sapiens, read-out: IC50 PC9
Method: (§7) Dose response studies against 34 compounds from the pyridazinone and phenylfuran-carboxamide class were conducted. […] In addition, Tarceva was included in these dose response studies.
as §6

H820 = assay: Dose response study (Alamar Blue), H820; format: cell-based; details: Homo sapiens, read-out: IC50 H820
Method: as §7, §6

[1] = Homo sapiens, NCI-H1975, 48 h, H1975, 12 point doubling dilution 10 uM to 5 nM, 48 h treatment, alamar blue additional 48 h, read-out: IC50 H1975
[2] = Homo sapiens, read-out: Dose Response (uM) H827
[3] = NCI-H358, 48 h, H358, 12 point doubling dilution 10 uM to 5 nM, 48 h treatment, alamar blue additional 48 h, read-out: IC50 H358
[4] = Homo sapiens, NCI-H1975, dose response 10 M to 5 nM, IC50, read-out: Dose Response (uM) H1975
[5] = Homo sapiens; read-out: Dose Response (uM) H827
[6] = NCI-H358, H358, 12 point doubling dilution 10 uM to 5 nM, 48 h treatment, alamar blue additional 48 h, read-out: IC50 H358
[7] = NCI-H358, read-out: Dose Response (uM) H358
[8] = PC-9, PC9, 12 point doubling dilution 10 uM to 5 nM, 48 h treatment, alamar blue additional 48 h
[9] = NCI-H820, H820, 12 point doubling dilution 10 uM to 5 nM, 48 h treatment, alamar blue additional 48 h

Q: Which results are given for `Cc1cccc(-n2ncc(Cl)c(Cl)c2=O)c1` [compound 104122, 4,5-dichloro-2-m-tolyl-2H-pyridazin-3-one]?
A: IC50 (H1975; [1]): 0.29 µM; inhibition at 10 µM (H1975; Homo sapiens): 104%; IC50 (H1975; dose response 10 M to 5 nM, IC50, read-out: Dose Response (uM) H1975): 0.14 µM; IC50 (H827; [2]): 0.09 µM; IC50 (H358; [3]): 0.41 µM; IC50 (PC9; PC-9, 48 h): 650 nM; IC50 (H820; NCI-H820, 48 h): 180 nM

Q: For `O=c1c(Cl)c(Cl)cnn1-c1cccc(C(F)(F)F)c1` [compound 176729], which IC50 (H1975; [1]) is on record?
A: 0.31 µM

Q: What about the IC50 (H1975; [4]) of the same compound?
A: 0.16 µM

Q: And the inhibition at 10 µM (H1975; Homo sapiens)?
A: 102%

Q: What about the IC50 (H827; [5]) of the same compound?
A: 0.17 µM

Q: What about the IC50 (H358; [6]) of the same compound?
A: 0.32 µM

Q: What about the IC50 (H358; [7]) of the same compound?
A: 0.12 µM

Q: What about the IC50 (PC9; [8]) of the same compound?
A: 900 nM

Q: And the IC50 (H820; [9])?
A: 280 nM

Q: Which results are given for `O=c1c(Cl)c(Cl)cnn1-c1ccccc1` [compound 257014]?
A: IC50 (H1975; [1]): 0.36 µM; IC50 (H1975; [4]): 0.29 µM; IC50 (H827; [2]): 0.24 µM; IC50 (H358; [3]): 0.68 µM; IC50 (H358; NCI-H358, dose response 10 M to 5 nM, IC50, read-out: Dose Response (uM) H358): 0.31 µM; IC50 (PC9; PC-9, 48 h): 830 nM; IC50 (H820; NCI-H820, 48 h): 240 nM

Q: How did the IC50 (H1975; [1]) turn out when `O=c1c(Br)c(Br)cnn1-c1ccccc1` [compound 257015] was run?
A: 0.32 µM

Q: And the IC50 (H1975; [4])?
A: 0.16 µM

Q: And the IC50 (H827; [5])?
A: 0.17 µM

Q: And the IC50 (H358; [6])?
A: 0.43 µM

Q: And the IC50 (H358; [7])?
A: 0.16 µM

Q: And the IC50 (PC9; [8])?
A: 710 nM

Q: And the IC50 (H820; [9])?
A: 220 nM

Q: With `Cc1ccc(-n2ncc(Cl)c(Cl)c2=O)cc1` [compound 257016] as the compound, how does the IC50 (H1975; [1]) read?
A: 0.47 µM

Q: What about the IC50 (H1975; [4]) of the same compound?
A: 0.32 µM

Q: And the IC50 (H827; [5])?
A: 0.29 µM

Q: What about the IC50 (H358; [6]) of the same compound?
A: 0.78 µM

Q: And the IC50 (H358; [7])?
A: 0.35 µM

Q: And the IC50 (PC9; [8])?
A: 1130 nM

Q: And the IC50 (H820; [9])?
A: 370 nM

Q: For `Cc1cccc(-n2ncc(Cl)c(Cl)c2=O)c1C` [compound 257018], which IC50 (H1975; [1]) is on record?
A: 0.54 µM

Q: What about the IC50 (H1975; [4]) of the same compound?
A: 0.35 µM

Q: And the IC50 (H827; [5])?
A: 0.5 µM

Q: And the IC50 (H358; [6])?
A: 1.13 µM

Q: And the IC50 (H358; [7])?
A: 0.55 µM

Q: And the IC50 (PC9; [8])?
A: 1570 nM

Q: What about the IC50 (H820; [9]) of the same compound?
A: 340 nM

Q: What does the source list for `Cc1ccc(-n2ncc(Cl)c(Cl)c2=O)cc1C` [compound 257019]?
A: IC50 (H1975; [1]): 0.89 µM; IC50 (H1975; [4]): 0.29 µM; IC50 (H827; [5]): 0.32 µM; IC50 (H358; [6]): 0.79 µM; IC50 (H358; [7]): 0.24 µM; IC50 (PC9; [8]): 1980 nM; IC50 (H820; [9]): 670 nM

Q: What does the source list for `Cc1cc(C)cc(-n2ncc(Cl)c(Cl)c2=O)c1` [compound 257020]?
A: IC50 (H1975; [1]): 0.58 µM; IC50 (H1975; [4]): 0.27 µM; IC50 (H827; [5]): 0.3 µM; IC50 (H358; [6]): 0.62 µM; IC50 (H358; [7]): 0.22 µM; IC50 (PC9; [8]): 1550 nM; IC50 (H820; [9]): 450 nM

Reference: patent publication US20100210649A1, “PYRIDAZINONES AND FURAN-CONTAINING COMPOUNDS” (Sloan-Kettering Institute for Cancer Research, priority 2006, published 2010)
